In EP3046573B1, “AMYLIN ANALOGUES” (Zealand Pharma A/S, priority 2013, dated 2015):
pEC50: −log10 of the molar value. Read-outs that look alike come from different tables or passages of the source. Numbered stars: 1 amine (or outer) side, 2 acyl side, 3 side chain; on linkers, the order of the positions; unused ones are H or OH. Bridge positions count the residues as written; N and C are the ends. Square brackets hold non-standard residues; d marks the D form. Peptide text beside a SMILES is read from it. * marks the point of attachment. C20 diacid = O=C(O)CCCCCCCCCCCCCCCCCCC(=O)*; γGlu = O=C(O)[C@H](CCC(=O)[*:2])N[*:1]; NMeI = CC[C@H](C)[C@H](NC)C(=O)O; Sar = CNCC(=O)O

Columns and labels:
[1] = biological target: T1, human amylin receptor 3 (hAMYR3) consisting of hCTR2 co-expressed with human Receptor Activity Modifying Protein 3 (hRAMP3) (Homo sapiens, UniProt O60896+P30988); assay: hAMYR3 assay: induction of cAMP (AlphaScreen cAMP Assay kit) in COS7 cells expressing hAMYR3; assay type: cell-based; settings: cAMP induction in COS7 cells expressing hAMYR3; average of a minimum of 3 determinations; read-out: hAMY R3 EC50
T1 construct: expressed in transfected cells
T1 sequence (P30988 25-474): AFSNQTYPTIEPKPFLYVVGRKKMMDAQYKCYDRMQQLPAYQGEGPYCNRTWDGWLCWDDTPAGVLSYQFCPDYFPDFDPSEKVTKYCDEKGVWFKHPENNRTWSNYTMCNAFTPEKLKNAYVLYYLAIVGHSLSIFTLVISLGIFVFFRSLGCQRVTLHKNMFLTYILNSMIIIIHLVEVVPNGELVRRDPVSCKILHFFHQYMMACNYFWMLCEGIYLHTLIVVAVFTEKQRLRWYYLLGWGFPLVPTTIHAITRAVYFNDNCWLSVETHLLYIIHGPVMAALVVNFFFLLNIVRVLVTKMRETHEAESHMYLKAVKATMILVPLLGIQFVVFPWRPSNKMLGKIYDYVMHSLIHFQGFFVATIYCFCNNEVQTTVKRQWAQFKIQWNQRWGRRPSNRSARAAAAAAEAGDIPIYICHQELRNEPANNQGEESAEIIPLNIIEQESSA
T1 sequence (O60896 24-148 partner): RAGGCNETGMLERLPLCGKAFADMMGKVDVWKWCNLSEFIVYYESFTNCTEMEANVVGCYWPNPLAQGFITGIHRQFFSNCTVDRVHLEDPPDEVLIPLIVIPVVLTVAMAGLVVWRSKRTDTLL
Summary of the method: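 Stable COS7 clone co-expressing hCTR2 and hRAMP3, stimulated 15 min at 37° C with increasing peptide in Tyrode buffer pH 7.4 with 100 µM IBMX and 0.1% casein. cAMP measured by AlphaScreen after lysis; EC50 and % efficacy versus pramlintide from 4PL fit.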

[2] = biological target: T2, human calcitonin receptor (hCTR2) (Homo sapiens, UniProt P30988); assay: hCTR2 assay: induction of cAMP (AlphaScreen cAMP Assay kit) in COS7 cells expressing hCTR2; assay type: cell-based
T2 construct: expressed in transfected cells
T2 sequence (P30988 25-474): T1 sequence (P30988 25-474)
Summary of the method: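 Stable RAMP-naive COS7 clone expressing hCTR2 was stimulated with increasing peptide concentrations in Tyrode buffer (pH 7.4) with 100 µM IBMX and 0.1% casein for 15 min at 37° C. Cells were lysed and cAMP measured by AlphaScreen. EC50 and efficacy relative to pramlintide came from 4PL curve fits.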

[3] = Solubility assessment (turbidity absorbance at 325 nm); assay type: physicochemical; settings: stock 2 mg/ml diluted 1:1, ambient temperature (typically 25°C), n=1; for Solubility, Acetate buffer pH 4: 100 mM acetate buffer pH 4.0; for Solubility, Acetate buffer pH 5: 100 mM acetate buffer pH 5.0; for Solubility, Histidine buffer pH 6: 100 mM histidine buffer pH 6.0; for Solubility, Histidine buffer pH 7: 100 mM histidine buffer pH 7.0; for Solubility, Phosphate buffer pH 6: 100 mM phosphate buffer pH 6.0; for Solubility, Phosphate buffer pH 7: 100 mM phosphate buffer pH 7.0; for Solubility, Phosphate buffer pH 7.5: 100 mM phosphate buffer pH7.5
Summary of the method: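 Stock 2 mg/ml peptide, H2O/HCl pH 2.5; 1:1 into 100 mM buffers: acetate pH 4.0/5.0, His pH 6.0/7.0, phosphate pH 6.0/7.0/7.5. A280 + A325, ~25°C, n=1. Soluble ≥ 1 mg/ml if A325 ≤ 0.02.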

Compound: CC[C@H](C)[C@@H](C(=O)N[C@@H](CC(C)C)C(=O)N[C@@H](CO)C(=O)N[C@@H](CO)C(=O)N[C@H](C(=O)N[C@@H](CCC(=O)O)C(=O)N[C@H](C(=O)NCC(=O)N[C@@H](CO)C(=O)N[C@@H](CCC(=O)O)C(=O)N[C@H](C(=O)N1CCC[C@H]1C(N)=O)[C@@H](C)O)C(C)C)[C@@H](C)O)N(C)C(=O)[C@H](C)NC(=O)CN(C)C(=O)[C@H](Cc1ccccc1)NC(=O)[C@H](CO)NC(=O)[C@H](CO)NC(=O)[C@H](CO)NC(=O)[C@H](CO)NC(=O)[C@H](CCCNC(=N)N)NC(=O)[C@H](Cc1c[nH]cn1)NC(=O)[C@H](CC(C)C)NC(=O)[C@H](Cc1ccccc1)NC(=O)[C@H](CCC(=O)O)NC(=O)[C@H](C)NC(=O)[C@H](CC(C)C)NC(=O)[C@H](CCCNC(=N)N)NC(=O)[C@H](CC(=O)O)NC(=O)[C@@H](NC(=O)[C@H](C)NC(=O)[C@@H]1CSSC[C@H](NC(=O)[C@H](CCCNC(=N)N)NC(=O)CC[C@H](NC(=O)CCCCCCCCCCCCCCCCCCC(=O)O)C(=O)O)C(=O)N[C@@H](CC(=O)O)C(=O)N[C@@H]([C@@H](C)O)C(=O)N[C@@H](C)C(=O)N[C@@H]([C@@H](C)O)C(=O)N1)[C@@H](C)O [Compound 149, [19CD]-isoGlu-RC()DTATC()ATDRLAEFLHRSSSSF-Gly(Me)-A-Ile(Me)-LSSTEVGSETP-NH2] ({C20 diacid-γGlu}-RCDTATCATDRLAEFLHRSSSSF[Sar]A[NMeI]LSSTEVGSETP-NH2; disulfide 2-7)
- pEC50 [1]: 9.59
- pEC50 [2]: 9.80
- Solubility, Acetate buffer pH 4 [3]: SS (SS indicates solubility ≥ 1mg/ml)
- Solubility, Acetate buffer pH 5 [3]: SS (SS indicates solubility ≥ 1mg/ml)
- Solubility, Histidine buffer pH 6 [3]: SS (SS indicates solubility ≥ 1mg/ml)
- Solubility, Histidine buffer pH 7 [3]: SS (SS indicates solubility ≥ 1mg/ml)
- Solubility, Phosphate buffer pH 6 [3]: SS (SS indicates solubility ≥ 1mg/ml)
- Solubility, Phosphate buffer pH 7 [3]: SS (SS indicates solubility ≥ 1mg/ml)
- Solubility, Phosphate buffer pH 7.5 [3]: SS (SS indicates solubility ≥ 1mg/ml)

Compound: CC[C@H](C)[C@@H](C(=O)N[C@@H](CC(C)C)C(=O)N[C@@H](CO)C(=O)N[C@@H](CO)C(=O)N[C@H](C(=O)N[C@@H](CCC(=O)O)C(=O)N[C@H](C(=O)NCC(=O)N[C@@H](CO)C(=O)N[C@@H](CCC(=O)O)C(=O)N[C@H](C(=O)N1CCC[C@H]1C(N)=O)[C@@H](C)O)C(C)C)[C@@H](C)O)N(C)C(=O)[C@H](C)NC(=O)CN(C)C(=O)[C@H](Cc1ccccc1)NC(=O)[C@H](CO)NC(=O)[C@H](CO)NC(=O)[C@H](CO)NC(=O)[C@H](CO)NC(=O)[C@H](CCCNC(=N)N)NC(=O)[C@H](Cc1c[nH]cn1)NC(=O)[C@H](CC(C)C)NC(=O)[C@H](Cc1ccccc1)NC(=O)[C@H](CCC(=O)O)NC(=O)[C@H](C)NC(=O)[C@H](CC(C)C)NC(=O)[C@H](CCCNC(=N)N)NC(=O)[C@H](CC(=O)O)NC(=O)[C@@H](NC(=O)[C@H](C)NC(=O)[C@@H]1CSSC[C@H](NC(=O)[C@H](CCCNC(=N)N)NC(=O)CC[C@H](NC(=O)CCCCCCCCCCCCCCCCCCC(=O)O)C(=O)O)C(=O)N[C@@H](CCC(=O)O)C(=O)N[C@@H]([C@@H](C)O)C(=O)N[C@@H](C)C(=O)N[C@@H]([C@@H](C)O)C(=O)N1)[C@@H](C)O [Compound 150, [19CD]-isoGlu-RC()ETATC()ATDRLAEFLHRSSSSF-Gly(Me)-A-Ile(Me)-LSSTEVGSETP-NH2] ({C20 diacid-γGlu}-RCETATCATDRLAEFLHRSSSSF[Sar]A[NMeI]LSSTEVGSETP-NH2; disulfide 2-7)
- pEC50 [1]: 9.59
- pEC50 [2]: 9.80
- Solubility, Acetate buffer pH 4 [3]: SS (SS indicates solubility ≥ 1mg/ml)
- Solubility, Acetate buffer pH 5 [3]: SS (SS indicates solubility ≥ 1mg/ml)
- Solubility, Histidine buffer pH 6 [3]: SS (SS indicates solubility ≥ 1mg/ml)
- Solubility, Histidine buffer pH 7 [3]: SS (SS indicates solubility ≥ 1mg/ml)
- Solubility, Phosphate buffer pH 6 [3]: SS (SS indicates solubility ≥ 1mg/ml)
- Solubility, Phosphate buffer pH 7 [3]: SS (SS indicates solubility ≥ 1mg/ml)
- Solubility, Phosphate buffer pH 7.5 [3]: SS (SS indicates solubility ≥ 1mg/ml)

Compound: CC[C@H](C)[C@@H](C(=O)N[C@@H](CC(C)C)C(=O)N[C@@H](CO)C(=O)N[C@@H](CO)C(=O)N[C@H](C(=O)N[C@@H](CCC(=O)O)C(=O)N[C@H](C(=O)NCC(=O)N[C@@H](CO)C(=O)N[C@@H](CCC(=O)O)C(=O)N[C@H](C(=O)N1CCC[C@H]1C(N)=O)[C@@H](C)O)C(C)C)[C@@H](C)O)N(C)C(=O)[C@H](C)NC(=O)CN(C)C(=O)[C@H](Cc1ccccc1)NC(=O)[C@H](CO)NC(=O)[C@H](CO)NC(=O)[C@H](CO)NC(=O)[C@H](CO)NC(=O)[C@H](CCCNC(=N)N)NC(=O)[C@H](Cc1c[nH]cn1)NC(=O)[C@H](CC(C)C)NC(=O)[C@H](Cc1ccccc1)NC(=O)[C@H](CCC(=O)O)NC(=O)[C@H](C)NC(=O)[C@H](CC(C)C)NC(=O)[C@H](CCCNC(=N)N)NC(=O)[C@H](CC(=O)O)NC(=O)[C@@H](NC(=O)[C@H](C)NC(=O)[C@@H]1CSSC[C@H](NC(=O)[C@H](CCCNC(=N)N)NC(=O)CC[C@H](NC(=O)CCCCCCCCCCCCCCCCCCC(=O)O)C(=O)O)C(=O)N2CCC[C@H]2C(=O)N[C@@H]([C@@H](C)O)C(=O)N[C@@H](C)C(=O)N[C@@H]([C@@H](C)O)C(=O)N1)[C@@H](C)O [Compound 151, [19CD]-isoGlu-RC()PTATC()ATDRLAEFLHRSSSSF-Gly(Me)-A-Ile(Me)-LSSTEVGSETP-NH2] ({C20 diacid-γGlu}-RCPTATCATDRLAEFLHRSSSSF[Sar]A[NMeI]LSSTEVGSETP-NH2; disulfide 2-7)
- pEC50 [1]: 9.96
- pEC50 ([2]; cAMP induction in COS7 cells expressing hCTR2, average of a minimum of 3 determinations, read-out: hCTR2 EC50): 10.18
- Solubility, Acetate buffer pH 4 [3]: SS (SS indicates solubility ≥ 1mg/ml)
- Solubility, Acetate buffer pH 5 [3]: SS (SS indicates solubility ≥ 1mg/ml)
- Solubility, Histidine buffer pH 6 [3]: SS (SS indicates solubility ≥ 1mg/ml)
- Solubility, Histidine buffer pH 7 [3]: SS (SS indicates solubility ≥ 1mg/ml)
- Solubility, Phosphate buffer pH 6 [3]: SS (SS indicates solubility ≥ 1mg/ml)
- Solubility, Phosphate buffer pH 7 [3]: SS (SS indicates solubility ≥ 1mg/ml)
- Solubility, Phosphate buffer pH 7.5 [3]: SS (SS indicates solubility ≥ 1mg/ml)
